Assay results taken from EP0558245A1, “Heterobicyclic compounds as antagogists of alpha-1 adrenergic and SHT1A receptors” (priority 1992, dated 1993).
Where two headings read alike, the source gives them in different places.

Key:
α₁ receptors = assay: [3H]prazosin binding (α1 receptors), rat cerebral cortex membranes; details: rat cerebral cortex crude membranes, [3H]prazosin 0.35 nM, 25°C 30 min; read-out: Receptor Binding IC50 (nM) α1
Procedure: Rat cerebral cortices were homogenized in 50 volumes of original wet weight of ice-cold 50 mM Tris-HCl buffer pH 7.4. The homogenates were centrifuged at 48,000 x g for 10 minutes, and the pellets were resuspended in the same volume of ice-cold buffer, centrifuged and resuspended two more times. The final pellets obtained were resuspended in the same volume of buffer and incubated according to the conditions reported in the table below.
(§1) The incubations were terminated after the appropriate time (see table) by rapid filtration through Whatman GF/B filters using a Brandel cell harvester. The filters were washed twice with 15 ml of ice-cold buffer (see table). The radioactivity retained on the filters was determined by liquid scintillation counting. Nonspecific binding (which amounted generally to 10-30%) was evaluated by adding high concentrations of the specific displacers (see table). All the compounds were initially tested at 1x10⁻⁶ M concentration, and in the presence of significant displacing activity, a complete competition curve was generated (down to a concentration of 10⁻¹¹ M). All the samples were run in triplicate.

5HT1A receptors = target: T1, 5HT1A receptors (Rattus norvegicus, UniProt P19327); assay: [3H]8-OH-DPAT binding (5HT1A receptors), rat hippocampus membranes
T1 construct: Rat hippocampi were homogenized; from tissue; host or cells: rat hippocampus membranes
T1 sequence (P19327 1-422): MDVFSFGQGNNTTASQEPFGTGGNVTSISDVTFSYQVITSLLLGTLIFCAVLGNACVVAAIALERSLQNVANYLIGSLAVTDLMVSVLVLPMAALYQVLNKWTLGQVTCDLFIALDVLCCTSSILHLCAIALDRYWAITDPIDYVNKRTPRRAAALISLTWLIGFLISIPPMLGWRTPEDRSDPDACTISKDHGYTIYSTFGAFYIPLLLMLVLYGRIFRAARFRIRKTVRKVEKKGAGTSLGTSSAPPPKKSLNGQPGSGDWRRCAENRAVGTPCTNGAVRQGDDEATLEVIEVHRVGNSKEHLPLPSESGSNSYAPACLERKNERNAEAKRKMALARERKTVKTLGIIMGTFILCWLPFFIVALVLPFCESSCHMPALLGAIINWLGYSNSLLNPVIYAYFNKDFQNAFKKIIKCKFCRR
Procedure: Rat hippocampi were homogenized in 50 volumes of original wet weight of ice-cold 50 mM Tris-HCl buffer pH 7.4. The homogenates were centrifuged at 48,000 x g for 10 minutes, and the pellets were resuspended in the same volume of ice-cold buffer, incubated for 10 minutes at 37°C, centrifuged and resuspended two more times. The final pellets obtained were resuspended in the same volume of buffer and incubated according to the conditions reported in the table below.
as §1
The competition curves were always analyzed (to evaluate the IC₅₀ values) by non linear curve fitting of the logistic equation according to the method reported by De Lean et al. (Am. J. Physiol., 235, E97, 1978), utilizing the ALLFIT program [publically available from the National Institutes of Health (N.I.H.) Bethesda, Maryland, USA] written for the IBM PC.

[1] = Acute toxicity in mice after intraperitoneal and oral administration; details: mouse, in vivo, female albino Swiss mice, mortality recorded 7 days after administration
Procedure: Male Sprague Dawley rats [Crl: CD' BR] of 200-300 g b.w., female Albino Swiss mice [Crl: CD-1 (ICR) BR] 20-30 g b.w., and male Beagle dogs (10-12 kg b.w.) were obtained from Charles River, Italy and Nossan (Correzzana, Milan, Italy), respectively. Animals were housed with free access to food and water and maintained on forced light-dark cycle at 22-24°C until the day of experiments.
The acute toxicity of synthesized compounds was evaluated in female albino Swiss mice after intraperitoneal and oral administration. Four logarithmic scaled doses of the compounds were dissolved or suspended in 0.5% Methocel and administered in a volume of 10 ml/kg to groups of 4 mice/dose. Mortality was recorded 7 days after the administration. Data analysis: the LD₅₀ values and their fiducial limits were calculated according to the method of Weil (Biometrics, 8, 249, 1952).

rat bladder strips = assay: K+-induced contractions of rat bladder strips; type: cell-based
Procedure: The whole bladder of the rat was removed and immediately placed in Krebs solution warmed at 37°C. […] Each strip was placed in a 10 ml organ bath and connected, under a constant load of 1 g, to an isometric strain gauge (DY-1 Basile, Comerio, Varese, Italy). […] After a 60 minutes equilibration period the strips were exposed to 80 mM KCl (final concentration). […] When the tonic contraction was stable, the strips were washed and 30 minutes later a new contraction was induced. After having recorded two or more reproducible responses, one concentration of the tested drugs was added to the bath and 30 minutes later a new contraction was induced. The experimental groups consisted of at least two preparations taken from different animals for each concentration of drug tested. The IC₅₀ values of inhibition of agonist-induced contractions were evaluated by linear regression analysis.

[2] = rat hippocampus crude membranes, [3H]8-OH-DPAT 1.0 nM, 25°C 30 min, read-out: Receptor Binding IC50 (nM) 5-HT1a
[3] = ip, intraperitoneal, read-out: Acute Toxicity in Mice LD50 (mg/kg) i.p.
[4] = oral, read-out: Acute Toxicity in Mice LD50 (mg/kg) p.o.

Row | Structure (SMILES) | IC50 (α₁ receptors) | IC50 (5HT1A receptors; [2]) | LD50 at 168 h [1, 3] | LD50 at 168 h [1, 4] | IC50 (5HT1A receptors) | IC50 (rat bladder strips; read-out: K+ Stimulation of Rat Bladder IC50 (μM) Contractions Phasic) | IC50 (rat bladder strips; read-out: K+ Stimulation of Rat Bladder IC50 (μM) Contractions Tonic)
1 | COc1ccccc1N1CCN(CCCCc2cccc3c(=O)c(C)c(-c4ccccc4)oc23)CC1.CS(=O)(=O)O [Example 53, 8-{4-[4-(2-methoxyphenyl)-1-piperazinyl]-butyl}-3-methyl-4-oxo-2-phenyl-4H-1-benzopyran methanesulphonate] | 7 nM | 41 nM | 127 mg/kg | 1020 mg/kg | – | – | –
2 | CS(=O)(=O)O.Cc1c(-c2ccccc2)oc2c(C(=O)NCCCN3CCC(c4ccccc4)CC3)cccc2c1=O [Example 54, 8-[3-(4-phenyl-1-piperidinyl)-propylcarbamoyl]-3-methyl-4-oxo-2-phenyl-4H-1-benzopyran methansulphonate] | 35 nM | 143 nM | 106 mg/kg | 421 mg/kg | – | – | –
3 | CS(=O)(=O)O.Cc1c(-c2ccccc2)oc2c(C(=O)NCCCN3CCC(c4ccccc4)(c4ccccc4)CC3)cccc2c1=O [Example 55, 8-[3-(4,4-diphenyl-1-piperidinyl)-propylcarbamoyl]-3-methyl-4-oxo-2-phenyl-4H-1-benzopyran methansulphonate] | 291 nM | – | 128 mg/kg | ≥ 2000 mg/kg | > 1000 nM | – | –
4 | Cc1c(-c2ccccc2)oc2c(C(=O)NCCCN3CCC(C(=O)c4ccc(F)cc4)CC3)cccc2c1=O [Example 56, 8-{3-[4-(4-fluorobenzoyl)-1-piperidinyl]-propyl-carbamoyl}-3-methyl-4-oxo-2-phenyl-4H-1-benzopyran] | 25 nM | 748 nM | > 500 mg/kg | – | – | – | –
5 | Cc1c(-c2ccccc2)oc2c(C(=O)NCCCN3CCC(n4c(=O)[nH]c5ccccc54)CC3)cccc2c1=O [Example 57, 8-{3-[4-(2-oxo-1-benzimidazolinyl)-1-piperidinyl]-propylcarbamoyl-}-3-methyl-4-oxo-2-phenyl-4H-1-benzopyran] | 69 nM | > 1000 nM | 500 mg/kg | > 2000 mg/kg | – | – | –
6 | CS(=O)(=O)O.Cc1c(-c2ccccc2)oc2c(C(=O)NCCCN3CCN(c4ncccn4)CC3)cccc2c1=O [Example 58, 8-{3-[4-(2-pyrimidinyl)-1-piperazinyl]-propylcarbamoyl}-3-methyl-4-oxo-2-phenyl-4H-1-benzopyran methanesulphonate] | ≥ 1000 nM | 126 nM | 258 mg/kg | 508 mg/kg | – | – | –
7 | Cc1c(-c2ccccc2)oc2c(C(=O)NCCCN3CCN(c4ccccc4O)CC3)cccc2c1=O [Example 59, 8-{3-[4-(2-hydroxyphenyl)-1-piperazinyl]-propylcarbamoyl}-3-methyl-4-oxo-2-phenyl-4H-1-benzopyran] | 5 nM | 9 nM | > 500 mg/kg | 278 mg/kg | – | – | –
8 | COc1ccccc1N1CCN(CCCCNC(=O)c2cccc3c(=O)c(C)c(-c4ccccc4)oc23)CC1.CS(=O)(=O)O [Example 60, 8-{4-[4-(2-methoxyphenyl)-1-piperazinyl]-butylcarbamoyl}-3-methyl-4-oxo-2-phenyl-4H-1-benzopyran methansulphonate] | 25 nM | 45 nM | 203 mg/kg | 329 mg/kg | – | – | –
9 | COc1ccccc1N1CCN(CCCNS(=O)(=O)c2cccc3c(=O)c(C)c(-c4ccccc4)oc23)CC1.CS(=O)(=O)O [Example 61, 8-{3-[4-(2-methoxyphenyl)-1-piperazinyl]-propylsulphamoyl}-3-methyl-4-oxo-2-phenyl-4H-1-benzopyran methanesulphonate] | 36 nM | 11 nM | 315 mg/kg | 592 mg/kg | – | – | –
10 | COc1ccccc1OCCN(C)CCCNC(=O)c1cccc2c(=O)c(C)c(-c3ccccc3)oc12.Cl [Example 62, 8-{3-[N-methyl-2-(2-methoxyphenoxy)-ethylamino]-propylcarbamoyl}-3-methyl-4-oxo-2-phenyl-4H-1-benzopyran hydrochloride] | 252 nM | 278 nM | 128 mg/kg | 344 mg/kg | – | – | –
11 | COc1ccccc1N1CCN(CCC(=O)N(C)c2cccc3c(=O)c(C)c(-c4ccccc4)oc23)CC1.CS(=O)(=O)O [Example 63, 8-{N-methyl-3-[4-(2-methoxyphenyl)-1-piperazinyl]-propionamido}-3-methyl-4-oxo-2-phenyl-4H-1-benzopyran methanesulphonate] | 194 nM | 99 nM | 309 mg/kg | 479 mg/kg | – | – | –
12 | COc1ccccc1N1CCN(CCOC(=O)Cc2cccc3c(=O)c(C)c(-c4ccccc4)oc23)CC1.Cl.Cl [Example 66, 8-{2-[4-(2-methoxyphenyl)-1-piperazinyl]-ethoxycarbonylmethyl}-3-methyl-4-oxo-2-phenyl-4H-1-benzopyran dihydrochloride] | 57 nM | 56 nM | – | 601 mg/kg | – | – | –
13 | COc1ccccc1N1CCN(CCCCNS(=O)(=O)c2cccc3c(=O)c(C)c(-c4ccccc4)oc23)CC1.CS(=O)(=O)O.CS(=O)(=O)O [Example 67, 8-{4-[4-(2-methoxyphenyl)-1-piperazinyl]-butylsulphamoyl}-3-methyl-4-oxo-2-phenyl-4H-1-benzopyran dimethanesulphonate] | 4 nM | 4 nM | 508 mg/kg | 1870 mg/kg | – | – | –
14 | COc1ccccc1N1CCN(CCCC(=O)Nc2cccc3c(=O)c(C)c(-c4ccccc4)oc23)CC1 [Example 69, 8-{4-[4-(2-methoxyphenyl)-1-piperazinyl]-butyramido}-3-methyl-4-oxo-2-phenyl-4H-1-benzopyran methanesulphonate hemihydrate] | 16 nM | 87 nM | 344 mg/kg | – | – | – | –
15 | COc1ccccc1N1CCN(CCO/N=C/c2cccc3c(=O)c(C)c(-c4ccccc4)oc23)CC1 [Example 70, E-8-{2-[4-(2-methoxyphenyl)-1-piperazinyl]-ethoxyimino-methyl}-3-methyl-4-oxo-2-phenyl-4H-1-benzopyran] | 53 nM | 85 nM | > 500 mg/kg | 1870 mg/kg | – | – | –
16 | COc1ccccc1N1CCN(CCNC(=O)/C=C/c2cccc3c(=O)c(C)c(-c4ccccc4)oc23)CC1 [Example 72, E-8-<2-{2-[4-(2-methoxyphenyl)-1-piperazinyl]-ethylcarbamoyl}-ethenyl>-3-methyl-4-oxo-2-phenyl-4H-1-benzopyran methanesulphonate 1.2 H₂0] | 145 nM | 111 nM | 479 mg/kg | > 2000 mg/kg | – | – | –
17 | COc1ccccc1N1CCN(CCCC[S+]([O-])c2cccc3c(=O)c(C)c(-c4ccccc4)oc23)CC1.CS(=O)(=O)O (centres unmarked) [Example 73, 8-{4-[4-(2-methoxyphenyl)-1-piperazinyl]-butylsulphinyl}-3-methyl-4-oxo-2-phenyl-4H-1-benzopyran methanesulphonate] | 6 nM | 89 nM | 202 mg/kg | 462 mg/kg | – | – | –
18 | COc1ccccc1N1CCN(CCOC(=O)/C=C/c2cccc3c(=O)c(C)c(-c4ccccc4)oc23)CC1 [Example 79, (E)-8-<2-{2-[4-(2-methoxyphenyl)-1-piperazinyl]-ethoxycarbonyl}-ethenyl>-3-methyl-4-oxo-2-phenyl-4H-1-benzopyran methanesulphonate] | 77 nM | 141 nM | > 500 mg/kg | > 2000 mg/kg | – | – | –
19 | COc1ccccc1N1CCN(CCCNC(=O)c2cccc3c2OCCC3=O)CC1.CS(=O)(=O)O [Example 87, 8-{3-[4-(2-methoxyphenyl)-1-piperazinyl]-propylcarbamoyl}-2,3-dihydro-4-oxo-4H-1-benzopyran methanesulphonate] | 119 nM | 107 nM | 237 mg/kg | > 500 mg/kg | – | – | –
20 | COc1ccccc1N1CCN(CCCCOc2cccc3c(=O)c(C)c(-c4ccccc4)oc23)CC1.Cl.Cl [dihydrochloride] | 43 nM | 53 nM | – | – | – | 0.7 µM | 1.4 µM
